# Target: Factor D (Homo sapiens (Human), UniProt P00746)
# Test: Factor D esterolytic assay (Z-Lys-SBzl substrate, DTNB, 405 nm)
# Format: biochemical
# Settings: Z-Lys-SBzl 1.29 mM, pH 7.5, 10% DMSO, tested a minimum of three times, read-out: Measured Ki (IC50) Value for Compounds: IC50
# Method in brief: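 Human Factor D ([…]) with 1.29 mM Z-Lys-SBzl in 100 mM HEPES, 500 mM NaCl, pH 7.5, 10% DMSO; substrate added immediately or after room-temperature preincubation. Released thiol reacted with DTNB, rate followed at 405 nm for 600 sec, 690 nm background subtracted. IC50 from percent inhibition versus uninhibited rate, n≥3.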
# Sequence of Factor D (P00746 26-253): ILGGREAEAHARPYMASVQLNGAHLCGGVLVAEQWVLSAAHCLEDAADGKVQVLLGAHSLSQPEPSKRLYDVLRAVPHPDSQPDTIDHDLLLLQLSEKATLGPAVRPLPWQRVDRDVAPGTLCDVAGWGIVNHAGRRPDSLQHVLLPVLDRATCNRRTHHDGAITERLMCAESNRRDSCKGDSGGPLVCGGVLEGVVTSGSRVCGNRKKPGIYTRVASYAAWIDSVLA
row,SMILES,IC50
1,"NCc1cccc(-c2cc(COc3ccccc3CC(=O)O)cc3c2ccn3S(=O)(=O)C2CC2)c1F [Compound 213b, 2-(2-((4-(3-(aminomethyl)-2-fluorophenyl)-1-(cyclopropylsulfonyl)-1H-indol-6-yl)methoxy)phenyl)acetic acid]",< 1000 nM
2,"NCc1cccc(-c2cc(COc3ccccc3CC(=O)O)cc3ccsc23)c1 [Compound 214f, 2-(2-((7-(3-(aminomethyl)phenyl)benzo[b]thiophen-5-yl)methoxy)phenyl)acetic acid]",< 1000 nM
3,"NCc1cccc(-c2cc(COc3ccccc3CC(=O)O)cc3sc(Cl)cc23)c1 [Compound 215h, 2-(2-((4-(3-(aminomethyl)phenyl)-2-chlorobenzo[b]thiophen-6-yl)methoxy)phenyl)acetic acid]",< 1000 nM
4,"NCc1cccc(-c2cc(NC(=O)c3ccccc3N)cc3ccoc23)c1 [Compound 216d, 2-amino-N-(7-(3-(aminomethyl)phenyl)benzofuran-5-yl)benzamide]",> 10000 nM
5,"Cn1ccc2cc(COc3ccccc3CC(=O)O)cc(-c3cccc(CN)c3)c21 [Compound 218f, 2-(2-((7-(3-(aminomethyl)phenyl)-1-methyl-1H-indol-5-yl)methoxy)phenyl)acetic acid]",> 10000 nM
6,"CC(C)Cc1cc2cc(COc3ccccc3CC(=O)O)cc(-c3ccnc(CN)c3)c2o1 [Compound 219c, 2-(2-((7-(2-(aminomethyl)pyridin-4-yl)-2-isobutylbenzofuran-5-yl)methoxy)phenyl)acetic acid]",< 1000 nM
7,"CC(C)Cc1cc2cc(COc3ccccc3CC(=O)O)cc(-c3ccnc(CN)c3F)c2o1 [Compound 220g, 2-(2-((7-(2-(aminomethyl)-3-fluoropyridin-4-yl)-2-isobutylbenzofuran-5-yl)methoxy)phenyl)acetic acid]",< 1000 nM
8,"NCc1cc(-c2cc(COc3ccccc3CC(=O)O)cc3sccc23)ccn1 [Compound 221c, 2-(2-((4-(2-(aminomethyl)pyridin-4-yl)benzo[b]thiophen-6-yl)methoxy)phenyl)acetic acid]",< 1000 nM
9,"CC(=O)NC(C(=O)O)c1ccccc1OCc1cc(-c2cccc(CN)c2)c2occc2c1 (stereo not drawn) [Compound 222f, 2-acetamido-2-(2-((7-(3-(aminomethyl)phenyl)benzofuran-5-yl)methoxy)phenyl)acetic acid]",< 1000 nM
10,"NCc1cccc(-c2cc(COc3ccccc3C(NC(=O)C3CC3)C(=O)O)cc3ccoc23)c1 (stereo not drawn) [Compound 223e, 2-(2-((7-(3-(aminomethyl)phenyl)benzofuran-5-yl)methoxy)phenyl)-2-(cyclopropanecarboxamido)acetic acid]",< 1000 nM
11,"CC(=O)Nc1ccc(CC(=O)O)c(OCc2cc(-c3cccc(CN)c3)c3occc3c2)c1 [Compound 224c, 2-(4-acetamido-2-((7-(3-(aminomethyl)phenyl)benzofuran-5-yl)methoxy)phenyl)acetic acid]",< 1000 nM
12,"NCc1cccc(-c2cc(COc3ccccc3CC(=O)O)cc3oc(Cl)cc23)c1 [Compound 225h, 2-(2-((4-(3-(aminomethyl)phenyl)-2-chlorobenzofuran-6-yl)methoxy)phenyl)acetic acid]",< 1000 nM
13,"NCc1cc(-c2cc(COc3ccccc3CC(=O)O)cc3cc(C(F)(F)F)oc23)ccn1 [Compound 226c, 2-(2-((7-(2-(aminomethyl)pyridin-4-yl)-2-(trifluoromethyl)benzofuran-5-yl)methoxy)phenyl)acetic acid]",< 1000 nM
14,"NCc1cccc(-c2cc(COc3ccccc3CC(=O)O)cc3cc(F)oc23)c1 [Compound 227e, 2-(2-((7-(3-(aminomethyl)phenyl)-2-fluorobenzofuran-5-yl)methoxy)phenyl)acetic acid]",< 1000 nM
15,"CC(C)S(=O)(=O)n1ccc2c(-c3cccc(CN)c3)cc(COc3ccccc3CC(=O)O)cc21 [Compound 228e, 2-(2-((4-(3-(aminomethyl)phenyl)-1-(isopropylsulfonyl)-1H-indol-6-yl)methoxy)phenyl)acetic acid]",< 1000 nM

# Reference: US11370774B2, “Substituted benzofuran, benzopyrrole, benzothiophene, and structurally related complement inhibitors” (BioCryst Pharmaceuticals, Inc., priority 2018, dated 2022)
